Like-named read-outs stand apart in the source and are kept apart here.

We go through three molecules from patent US12006310B2, “Preparation and application of triterpenoids with effect of improving glucose and lipid metabolism disorders” (SERICULTURAL&AGRI-FOOD RESEARCH INSTITUTE GUANGDONG ACADEMY …, priority 2022, dated 2024).

Assay [1] deals with primary isolated hepatic parenchymal cells of SD rats. The assay is described as follows: Hepatic gluconeogenesis inhibitory activity in primary hepatocytes. The format is cell-based. Conditions: for inhibition at 20 µM / inhibition at 40 µM: Rattus norvegicus, Hepatocyte, read-out: hepatic gluconeogenesis inhibitory activity. The source says:
In this embodiment, primary isolated hepatic parenchymal cells of SD rats (purchased from Experimental Animal Center of Southern Medical University) were used as a model, and berberine, a traditional Chinese medicine as a hypoglycemic agent, was used as a positive control to evaluate an impact of the novel triterpenoid compound (23R, 25E)-3β-hydroxy-23-methoxycucurbita-6,25-dien-5β,19-olide3-O-β-d-allopyranoside and Momordicoside G, and compositions thereof in different proportions (novel triterpenoid compound:Momordicoside G=1:0.5, 1:1.0, or 1:1.5) on hepatic gluconeogenesis, thereby further elaborating beneficial effects of the present invention. The process was as follows:
In-situ perfusion digestion was used to digest SD rat liver with type IV collagenase. After being dispersed, hepatocytes were transferred to a 49% Percoll separation solution for centrifugation. After supernatant was discarded, the cells adhered for 6 hours to a 24-well plate coated with 0.2% gelatin. After starvation in a serum-free low-sugar medium for 8 hours, the supernatant was discarded, the cells were washed with PBS buffer, and then a reaction solution (sugar-free DMEM containing 2 mM sodium pyruvate and 20 mM sodium lactate) was added, waiting for a sample test.
Triterpenoid compounds (a novel triterpenoid compound and Momordicoside G) were dissolved in dimethyl sulfoxide (DMSO) to prepare […] mother liquor. Through dilution with the foregoing reaction solution, the final concentrations of the triterpenoid compounds finally added into cell culture wells were 20 μM and 40 μM respectively, and the final concentration of the DMSO was 0.4%. A negative control was a reaction solution containing the DMSO with the same concentration (0.4%). Berberine, a positive control, was prepared into 40 mM with ultrapure water, the final concentrations for the test were 20 μM and 40 μM, and the final concentration of the DMSO was kept at 0.4%. To-be-tested samples were added into the cell reaction solution, and continued to be cultured for 6 hours. Then the glucose concentration in the culture medium (that is, the reaction solution) of each well was measured, and then the medium was discarded. After being washed with PBS, the cells were lysed with 250 mM NaOH, and the protein concentration was measured by using a Coomassie brilliant blue method. By reading an absorbance value, the concentration of glucose in the medium in all sample wells and the concentration of protein after lysis were determined by using a standard curve method, and a ratio of the two was used to measure an average gluconeogenesis level of the cells in the wells.

The next assay relates to 3T3-L1 preadipocytes. Put plainly: Inhibitory activity against 3T3-L1 preadipocyte-induced differentiation (oil red O staining). The format is cell-based, mouse. To be noted: for content of lipid droplets after oil red O staining: 20 μM and 40 μM, compared with differentiation solution group. How it is done: A mouse embryonic fibroblast 3T3-L1 cell line (preadipocytes) was purchased from Shanghai Cell Bank, Chinese Academy of Sciences.
In the test, samples fell into an undifferentiation control group (cultured with a normal DMEM), a negative control group (cultured with a DMEM containing a differentiation solution), and a sample intervention group [cultured with a DMEM containing a differentiation solution+a or 40 μM triterpenoid compound or triterpenoid composition (novel triterpenoid compound:Momordicoside G=0.5, 1.0, or 1.5)]. Differentiation was induced by using a methylisobutylxanthine, dexamethasone and insulin, (MDI) induction medium (the induction medium is a differentiation solution, and the differentiation solution includes a high-sugar DMEM containing 0.5 mmol/L IBMX, 1 μmol/L DEX, 10 mg/L insulin, and 10% FCS). 3T3-L1 preadipocytes were cultured in an incubator with 5% CO2 and 37° C. saturated humidity, and cultured in the DMEM containing 10% FCS until the density of monolayer adherent cells was greater than or equal to 90%. After being washed with Hanks' balanced salt solution (HBSS), the cells were digested by trypsin, and then inoculated into a 6-well culture plate (1×10^5 cells/well). After cell contact inhibition, a fresh DMEM containing 10% FCS was used for fusion culture for 2 days. On the 3rd day (that is, the 0th day of differentiation), the cells were cultured in the differentiation solution for culture, and 0.1% DMSO and a novel triterpenoid compound (23R, 25E)-3β-hydroxy-23-methoxycucurbita-6,25-dien-5β,19-olide3-O-β-d-allopyranoside with concentration gradients of 20 μM and 40 μM or known compound Momordicoside G or a composition of the two were added in the sample intervention group. 0.1% DMSO was added in the negative control group. On the 2nd day of differentiation, the medium was replaced with a DMEM containing only 10 mg/L insulin and 10% FCS, the samples of each group continued to be cultured, and the medium was replaced once every 2 days until the experiment ended on the 8th day of differentiation. After the experiment ended, the medium was discarded, the cells were washed twice with cold PBS, and the cells were fixed with 4% paraformaldehyde solution for 60 min. After paraformaldehyde was removed and PBS was added for washing, the fixed cells were stained with an oil red O dye kit (Solarbio, G1262-4) for 1 hour, and the cells were washed with 60% isopropanol for 3 times to remove the uncolored oil red O dye and were photographed for observation. After the observation, the cells were lysed with lysate (containing 4% NP-40), and an absorbance value at 490 nm was measured, and calculated by using an OD value.

[2] abbreviates: 20 μM, 6 hours culture, primary hepatocytes.
Where [3] appears, read: 40 μM, 6 hours culture, primary hepatocytes.

In the case of `COC(C=C(C)C)C[C@@H](C)[C@H]1CC[C@@]2(C)C3C=CC45OC(=O)[C@]3(CC[C@]12C)C4CC[C@H](O[C@@H]1O[C@H](CO)[C@H](O)[C@H](O)[C@H]1O)C5(C)C` (stereo partly drawn) [novel triterpenoid compound, (23R, 25E)-3β-hydroxy-23-methoxycucurbita-6,25-dien-5β,19-olide3-O-β-d-allopyranoside], the inhibition at 20 µM in assay [1] (6 h) amounted to 32.1%; in the assay with 3T3-L1 preadipocytes (Mus musculus, 3T3-L1, 20 μM, 8th day of differentiation, oil red O, absorbance 490 nm, vs differentiation solution group, read-out: inhibition rate on differentiation of 3T3-L1 preadipocytes), 35.5%. Also, the inhibition at 40 µM was 28.9% in assay [1] (6 h) and 56.4% with 3T3-L1 preadipocytes (Mus musculus, 3T3-L1, 40 μM, 8th day of differentiation, oil red O, absorbance 490 nm, vs differentiation solution group, read-out: inhibition rate on differentiation of 3T3-L1 preadipocytes). The “content of lipid droplets after oil red O staining” value in the assay on 3T3-L1 preadipocytes was “decreased significantly”.

For `COc1ccc2cc3[n+](cc2c1OC)CCc1cc2c(cc1-3)OCO2` [berberine], the inhibition at 20 µM in assay [1] (setting [2]) came to 15.6%. The inhibition at 40 µM in assay [1] (setting [3]) is 35.2%.

As for Momordicoside G, the figures for the “hepatic gluconeogenesis inhibitory activity” value in assay [1] (setting [2]) and in assay [1] (setting [3]) were 20.75% and 34.42%, respectively. In the assay with 3T3-L1 preadipocytes, the “content of lipid droplets after oil red O staining” value is reported as “decreased significantly”. The “inhibition rate on differentiation of 3T3-L1 preadipocytes” value with 3T3-L1 preadipocytes (20 μM, 8th day of differentiation, oil red O, absorbance 490 nm, vs differentiation solution group) came out at 23.77%; in the assay on 3T3-L1 preadipocytes (40 μM, 8th day of differentiation, oil red O, absorbance 490 nm, vs differentiation solution group), 51.27%.
